Reference: PubChem BioAssay (NCI)
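Growth conditions: 96-well plates. Treatment: test compound, 48 hours, 5 concentrations. Analysis: linear interpolation between bracketing concentrations; unreached endpoints set to highest concentration. TGI: concentration producing complete growth inhibition.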

Key:
Experiment in all cases: growth of human tumour cells (NCI), 48 h
M19-MEL melanoma = test system: M19-MEL melanoma
DMS 273 small cell lung = test system: DMS 273 small cell lung
SNB-78 CNS = test system: SNB-78 CNS
LXFL 529 NSCLC = test system: LXFL 529 NSCLC
DMS 114 small cell lung = test system: DMS 114 small cell lung
DLD-1 colon = test system: DLD-1 colon
XF 498 CNS = test system: XF 498 CNS
HOP-18 NSCLC = test system: HOP-18 NSCLC
RXF-631 renal = test system: RXF-631 renal

SMILES	TGI (M19-MEL melanoma) [µM]	TGI (DMS 273 small cell lung) [µM]	TGI (SNB-78 CNS) [µM]	TGI (LXFL 529 NSCLC) [µM]	TGI (DMS 114 small cell lung) [µM]	TGI (DLD-1 colon) [µM]	TGI (XF 498 CNS) [µM]	TGI (HOP-18 NSCLC) [µM]	TGI (RXF-631 renal) [µM]
COC(=O)C1[C@@H](C(=O)OC)C12C=Cc1ccccc1C=C2 (some centres undefined)	> 100	> 100	> 100	> 100	> 100	> 100	> 100	–	–
O=C(c1ccco1)N(C(=S)N1CCN(c2ccccn2)CC1)C1CCCCC1	> 100	> 100	> 100	> 100	> 100	> 100	–	> 100	–
CC1=NN(C(=O)c2ccccc2O)C(=O)/C1=C/c1ccccc1O	–	–	–	> 100	8.86	> 100	> 100	–	–
CCCN1CN(C(C(=O)N[C@@H]2C(=O)N3C(C(=O)O)=C(C)CSC23)c2ccc(O)cc2)CSC1=S (some centres undefined)	> 100	> 100	> 100	> 100	> 100	> 100	> 100	> 100	–
O=C(c1cccs1)N(C(=S)N1CCN(c2ccccn2)CC1)C1CCCCC1	–	> 100	> 100	> 100	> 100	> 100	–	> 100	–
CCCn1c(SCC)c2cc3cc4ccccc4cc3cc2c1-c1nc(F)nc(F)n1	> 100	> 100	> 100	> 100	> 100	–	> 100	–	> 100
